Measurements from patent US10231954B2, “Neurodegenerative therapies” (LYTIX BIOPHARMA AS, priority 2014, dated 2019).

Tests used:
Type in all cases: biochemical
Settings in all cases: 100 micromolar inhibitor concentration, 100 is no change
[1] = molecular target: MNK2 (Homo sapiens, UniProt Q9HBH9); experiment: Kinase profiling MNK2
Excerpt: (§1) Any value less that 25 is considered to be highly significant inhibition.

[2] = molecular target: T1, EIF2AK3 (Homo sapiens, UniProt Q9NZJ5); experiment: Kinase profiling EIF2AK3
T1 sequence (Q9NZJ5 30-1116): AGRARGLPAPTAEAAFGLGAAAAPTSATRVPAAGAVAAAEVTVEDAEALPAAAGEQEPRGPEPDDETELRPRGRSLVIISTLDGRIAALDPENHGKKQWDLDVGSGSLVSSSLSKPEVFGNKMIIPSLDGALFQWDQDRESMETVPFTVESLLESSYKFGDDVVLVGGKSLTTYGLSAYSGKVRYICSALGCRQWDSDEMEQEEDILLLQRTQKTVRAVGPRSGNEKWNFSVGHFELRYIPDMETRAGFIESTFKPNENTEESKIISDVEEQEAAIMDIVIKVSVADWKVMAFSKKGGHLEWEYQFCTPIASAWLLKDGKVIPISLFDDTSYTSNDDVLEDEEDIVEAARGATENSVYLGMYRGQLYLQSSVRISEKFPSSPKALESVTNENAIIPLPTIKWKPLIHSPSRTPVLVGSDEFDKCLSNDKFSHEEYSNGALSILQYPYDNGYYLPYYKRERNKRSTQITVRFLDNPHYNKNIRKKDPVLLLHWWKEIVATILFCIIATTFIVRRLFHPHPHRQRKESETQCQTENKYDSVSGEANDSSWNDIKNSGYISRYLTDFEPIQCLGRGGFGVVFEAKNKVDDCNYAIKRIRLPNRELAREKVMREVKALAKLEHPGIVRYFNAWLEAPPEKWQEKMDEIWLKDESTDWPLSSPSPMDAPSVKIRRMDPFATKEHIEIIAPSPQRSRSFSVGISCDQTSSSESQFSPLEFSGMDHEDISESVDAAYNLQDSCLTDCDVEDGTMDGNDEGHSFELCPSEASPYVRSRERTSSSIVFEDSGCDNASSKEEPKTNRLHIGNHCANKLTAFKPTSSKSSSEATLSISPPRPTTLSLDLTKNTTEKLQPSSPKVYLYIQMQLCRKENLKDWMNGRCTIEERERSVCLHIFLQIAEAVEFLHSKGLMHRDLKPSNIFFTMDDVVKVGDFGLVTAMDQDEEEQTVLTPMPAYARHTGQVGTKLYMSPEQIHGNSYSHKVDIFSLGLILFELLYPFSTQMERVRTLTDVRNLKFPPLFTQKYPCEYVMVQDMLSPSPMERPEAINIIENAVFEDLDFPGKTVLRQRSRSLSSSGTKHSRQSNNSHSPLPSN
Excerpt: as §1

[3] = molecular target: HIPK3 (Homo sapiens, UniProt Q9H422); experiment: Kinase profiling HIPK3
Chain of HIPK3 (Q9H422 whole entry, species assumed): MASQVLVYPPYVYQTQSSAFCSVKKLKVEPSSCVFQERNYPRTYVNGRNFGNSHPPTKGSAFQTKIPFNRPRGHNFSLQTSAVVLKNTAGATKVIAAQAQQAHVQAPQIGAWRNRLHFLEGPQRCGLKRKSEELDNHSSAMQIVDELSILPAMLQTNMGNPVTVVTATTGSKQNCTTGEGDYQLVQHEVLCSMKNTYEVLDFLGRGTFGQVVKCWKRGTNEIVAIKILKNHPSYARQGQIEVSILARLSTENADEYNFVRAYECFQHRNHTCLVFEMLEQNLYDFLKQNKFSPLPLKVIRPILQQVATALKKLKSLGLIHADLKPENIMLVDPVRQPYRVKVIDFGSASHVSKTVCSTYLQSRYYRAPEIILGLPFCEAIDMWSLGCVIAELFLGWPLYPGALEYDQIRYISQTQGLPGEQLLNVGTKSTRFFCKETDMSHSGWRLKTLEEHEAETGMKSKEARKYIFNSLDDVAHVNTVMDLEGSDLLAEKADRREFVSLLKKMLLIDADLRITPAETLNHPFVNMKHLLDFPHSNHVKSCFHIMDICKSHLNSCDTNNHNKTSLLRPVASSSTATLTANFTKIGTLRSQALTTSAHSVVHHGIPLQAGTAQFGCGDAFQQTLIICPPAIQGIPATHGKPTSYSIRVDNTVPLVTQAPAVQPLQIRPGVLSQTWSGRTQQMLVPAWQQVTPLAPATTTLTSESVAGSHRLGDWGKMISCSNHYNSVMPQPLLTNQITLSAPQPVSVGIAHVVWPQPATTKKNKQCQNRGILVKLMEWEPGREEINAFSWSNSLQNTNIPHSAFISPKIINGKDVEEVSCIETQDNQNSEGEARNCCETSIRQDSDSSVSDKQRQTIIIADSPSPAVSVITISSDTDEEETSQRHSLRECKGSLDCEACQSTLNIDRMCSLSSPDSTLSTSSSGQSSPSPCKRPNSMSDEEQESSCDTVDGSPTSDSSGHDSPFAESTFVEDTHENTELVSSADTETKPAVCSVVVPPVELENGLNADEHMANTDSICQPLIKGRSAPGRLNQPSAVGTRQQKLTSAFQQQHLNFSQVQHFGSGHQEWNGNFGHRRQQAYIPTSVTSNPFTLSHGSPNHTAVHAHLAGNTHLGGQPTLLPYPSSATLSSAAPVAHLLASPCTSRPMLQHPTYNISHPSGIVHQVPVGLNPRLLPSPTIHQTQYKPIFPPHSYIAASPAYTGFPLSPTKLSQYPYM
Excerpt: as §1

[4] = molecular target: T2, GCK (Homo sapiens, UniProt Q12851); experiment: Kinase profiling GCK
T2 sequence (Q12851 1-820): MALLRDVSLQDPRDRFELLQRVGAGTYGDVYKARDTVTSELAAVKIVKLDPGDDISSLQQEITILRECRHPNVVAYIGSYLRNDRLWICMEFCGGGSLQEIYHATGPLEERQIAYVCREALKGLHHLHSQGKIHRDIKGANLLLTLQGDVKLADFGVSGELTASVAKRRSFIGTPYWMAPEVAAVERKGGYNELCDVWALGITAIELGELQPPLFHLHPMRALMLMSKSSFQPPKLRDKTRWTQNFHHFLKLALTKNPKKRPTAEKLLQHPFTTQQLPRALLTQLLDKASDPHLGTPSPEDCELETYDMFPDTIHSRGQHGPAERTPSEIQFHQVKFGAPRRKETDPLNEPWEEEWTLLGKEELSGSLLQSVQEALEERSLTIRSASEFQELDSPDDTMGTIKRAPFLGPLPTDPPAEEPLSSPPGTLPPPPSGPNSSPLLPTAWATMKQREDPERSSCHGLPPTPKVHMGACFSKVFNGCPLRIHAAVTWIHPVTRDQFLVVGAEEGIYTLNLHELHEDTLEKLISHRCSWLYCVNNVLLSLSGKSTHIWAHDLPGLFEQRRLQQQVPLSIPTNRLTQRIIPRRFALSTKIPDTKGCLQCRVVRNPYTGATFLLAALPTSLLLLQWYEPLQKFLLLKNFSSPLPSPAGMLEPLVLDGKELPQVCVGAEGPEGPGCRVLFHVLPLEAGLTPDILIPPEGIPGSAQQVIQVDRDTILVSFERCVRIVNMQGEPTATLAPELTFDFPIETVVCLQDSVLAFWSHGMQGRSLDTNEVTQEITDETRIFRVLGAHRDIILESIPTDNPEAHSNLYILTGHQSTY
Excerpt: as §1

[5] = molecular target: T3, MAP4K3 (Homo sapiens, UniProt Q8IVH8); experiment: Kinase profiling MAP4K3
T3 sequence (Q8IVH8 1-894): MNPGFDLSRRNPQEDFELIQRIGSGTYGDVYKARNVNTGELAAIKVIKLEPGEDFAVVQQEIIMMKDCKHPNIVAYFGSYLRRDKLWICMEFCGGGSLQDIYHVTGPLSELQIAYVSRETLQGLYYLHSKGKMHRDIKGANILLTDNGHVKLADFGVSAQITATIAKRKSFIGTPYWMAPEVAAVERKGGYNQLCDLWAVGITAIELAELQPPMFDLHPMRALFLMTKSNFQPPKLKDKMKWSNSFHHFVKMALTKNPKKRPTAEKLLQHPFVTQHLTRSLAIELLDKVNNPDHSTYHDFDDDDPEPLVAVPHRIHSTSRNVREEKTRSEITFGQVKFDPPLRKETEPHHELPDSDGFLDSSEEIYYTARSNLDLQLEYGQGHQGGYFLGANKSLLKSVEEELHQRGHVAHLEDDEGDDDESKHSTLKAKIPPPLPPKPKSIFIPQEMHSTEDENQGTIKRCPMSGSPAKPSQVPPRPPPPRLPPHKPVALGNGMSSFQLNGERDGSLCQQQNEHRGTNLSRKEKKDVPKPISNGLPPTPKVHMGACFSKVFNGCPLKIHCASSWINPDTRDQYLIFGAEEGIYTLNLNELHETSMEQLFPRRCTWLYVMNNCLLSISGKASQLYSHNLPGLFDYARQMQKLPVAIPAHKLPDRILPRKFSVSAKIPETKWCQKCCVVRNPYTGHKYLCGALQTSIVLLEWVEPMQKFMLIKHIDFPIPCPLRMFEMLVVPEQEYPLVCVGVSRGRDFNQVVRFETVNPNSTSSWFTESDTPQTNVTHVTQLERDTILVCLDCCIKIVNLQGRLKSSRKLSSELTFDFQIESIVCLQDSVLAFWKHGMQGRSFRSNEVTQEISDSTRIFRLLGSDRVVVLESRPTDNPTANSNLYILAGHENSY
Excerpt: as §1

[6] = molecular target: PDGFRA (Homo sapiens, UniProt P16234); experiment: Kinase profiling PDGFRA
Chain of PDGFRA (P16234 24-1089, species assumed): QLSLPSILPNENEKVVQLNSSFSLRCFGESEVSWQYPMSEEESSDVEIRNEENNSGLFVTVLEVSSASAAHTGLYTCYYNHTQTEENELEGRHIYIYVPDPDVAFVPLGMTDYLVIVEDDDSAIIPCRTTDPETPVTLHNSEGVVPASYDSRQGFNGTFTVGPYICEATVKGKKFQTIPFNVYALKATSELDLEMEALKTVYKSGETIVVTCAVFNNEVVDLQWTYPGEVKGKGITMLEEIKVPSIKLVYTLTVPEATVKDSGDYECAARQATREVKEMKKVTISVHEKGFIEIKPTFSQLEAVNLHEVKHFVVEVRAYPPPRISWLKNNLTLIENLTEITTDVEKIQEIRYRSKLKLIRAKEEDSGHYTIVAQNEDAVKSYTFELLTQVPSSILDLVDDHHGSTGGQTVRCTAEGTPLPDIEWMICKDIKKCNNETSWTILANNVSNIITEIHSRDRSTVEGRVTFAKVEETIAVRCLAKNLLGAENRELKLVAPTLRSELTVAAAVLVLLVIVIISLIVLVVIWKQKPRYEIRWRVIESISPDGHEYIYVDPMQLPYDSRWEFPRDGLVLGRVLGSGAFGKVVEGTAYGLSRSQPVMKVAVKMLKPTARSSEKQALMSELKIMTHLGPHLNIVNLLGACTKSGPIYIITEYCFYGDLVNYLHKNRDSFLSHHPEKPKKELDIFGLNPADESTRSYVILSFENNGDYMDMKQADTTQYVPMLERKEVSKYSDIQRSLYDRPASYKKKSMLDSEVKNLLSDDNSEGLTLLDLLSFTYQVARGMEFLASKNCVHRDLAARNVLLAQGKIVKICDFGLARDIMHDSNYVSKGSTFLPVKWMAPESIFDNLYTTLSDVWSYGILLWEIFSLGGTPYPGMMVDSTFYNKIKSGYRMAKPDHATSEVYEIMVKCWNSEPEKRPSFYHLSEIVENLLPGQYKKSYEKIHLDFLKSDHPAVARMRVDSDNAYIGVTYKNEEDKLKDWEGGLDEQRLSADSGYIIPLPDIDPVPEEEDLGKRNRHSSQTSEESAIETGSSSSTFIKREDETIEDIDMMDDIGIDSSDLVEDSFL
Excerpt: as §1

Chain of MNK2 (Q9HBH9 whole entry, species assumed): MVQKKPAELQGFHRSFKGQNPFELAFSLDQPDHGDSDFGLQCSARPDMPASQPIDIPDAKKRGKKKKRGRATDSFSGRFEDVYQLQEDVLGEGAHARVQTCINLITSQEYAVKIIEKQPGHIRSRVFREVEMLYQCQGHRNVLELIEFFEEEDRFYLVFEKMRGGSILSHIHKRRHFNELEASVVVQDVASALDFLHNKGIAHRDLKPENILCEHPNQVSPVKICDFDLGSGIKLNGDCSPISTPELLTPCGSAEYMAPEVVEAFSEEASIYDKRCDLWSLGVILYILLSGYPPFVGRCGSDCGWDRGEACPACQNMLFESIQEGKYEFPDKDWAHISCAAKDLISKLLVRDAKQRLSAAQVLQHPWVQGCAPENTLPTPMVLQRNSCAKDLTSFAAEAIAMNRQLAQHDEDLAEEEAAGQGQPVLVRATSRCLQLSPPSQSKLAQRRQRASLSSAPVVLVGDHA

## CC(=O)Nc1nc2cc(C)ccc2s1 [Compound 03-76]
[1]
  residual kinase activity, MNK2: 81
[2]
  residual kinase activity, EIF2AK3: 97
[3]
  residual kinase activity, HIPK3: 79
[4]
  residual kinase activity, GCK: 35
[5]
  residual kinase activity, MAP4K3: 80
[6]
  residual kinase activity, PDGFRA: 59

## CC(=O)Nc1nc2cc(F)ccc2s1 [Compound 03-77]
[1]; read-out: residual kinase activity, MNK2
  remaining activity at 100 µM: 86%
[2]; read-out: residual kinase activity, EIF2AK3
  remaining activity at 100 µM: 99%
[3]; read-out: residual kinase activity, HIPK3
  remaining activity at 100 µM: 62%
[4]; read-out: residual kinase activity, GCK
  remaining activity at 100 µM: 8%
[5]; read-out: residual kinase activity, MAP4K3
  remaining activity at 100 µM: 55%
[6]; read-out: residual kinase activity, PDGFRA
  remaining activity at 100 µM: 59%

## O=C(Nc1nc2ccc(O)cc2s1)c1ccncc1 [Compound 08-42]
[1]
  residual kinase activity, MNK2: 33
[2]
  residual kinase activity, EIF2AK3: 59
[3]
  residual kinase activity, HIPK3: 90
[4]
  residual kinase activity, GCK: 27
[5]
  residual kinase activity, MAP4K3: 48
[6]
  residual kinase activity, PDGFRA: 40

## O=C(Nc1nc2ccc(O)cc2s1)c1cccnc1 [Compound 08-44]
[1]
  residual kinase activity, MNK2: 36
[2]
  residual kinase activity, EIF2AK3: 51
[3]
  residual kinase activity, HIPK3: 45
[4]
  residual kinase activity, GCK: 31
[5]
  residual kinase activity, MAP4K3: 56
[6]
  residual kinase activity, PDGFRA: 44
